Test [1] deals with T1, rat plasma kallikrein (Rattus norvegicus, UniProt P14272).
T1 construct: polyhistidine tag followed by proTEV cleavage site (pro-peptide) (N, cleaved yes); made in house; host or cells: HEK-293 (suspension-adapted), pEXPR-IBA42 vector
As to the kind of experiment: Functional enzyme assay, inhibition of rat plasma kallikrein (Z-PheArg-AMC substrate). The format is biochemical. The method, then: (§1) Functional enzyme assays were conducted in 10 mM Tris HCl, 150 mM NaCl, 10 mM MgCl2, 1 mM CaCl2 and 1 mg/mL BSA (all Sigma UK) pH 7.4 at 25° C. in solid black 96 or 384 well plates. […] Release of AMC was measured using a Pherastar FS (BMG Labtech), excitation 360 nm, emission 460 nm. The rate of the linear phase of the reaction, typically 5 to 45 minutes, was calculated in MARS data analysis software (BMG labtech). The rate was then used to calculate the IC50 and Ki in Prism (GraphPad). A four parameter inhibition non-linear regression equation was used to calculate the IC50. […]
(§2) Peptides were dissolved as the TFA-salts in their powder form, and stock solutions were usually prepared in water. All solutions were centrifuged and filtered ([…] syringe filters) prior to absorption measurement at 280 nm. Extinction coefficients were calculated based on the Trp/Tyr content of the peptide, and that of TMB (the TMB core, when contained in a peptide, has an extinction coefficient of ˜300 M^−1 cm^−1).

Test [2] deals with rabbit kallikrein (Oryctolagus cuniculus, UniProt G1T127). As to the kind of experiment: Functional enzyme assay, inhibition of rabbit kallikrein. It is filed as biochemical. Particulars: read-out: Rabbit (Ki). The method, then: as §1, §2
Test [3] concerns the target T2, human plasma kallikrein (Homo sapiens, UniProt P03952).
T2 construct: purchased Stratech, UK
As to the kind of experiment: Functional enzyme assay, inhibition of human plasma kallikrein (Z-PheArg-AMC substrate). It is filed as biochemical. On the procedure:
as §1, §2

The target of test [4] is T3, biotinylated human plasma kallikrein (Homo sapiens, UniProt P03952).
T3 construct: The human kallikrein is non-recombinant and therefore the heavy chain is present; purchased Innovative Research, Novi, Mich., USA IHPKA; host or cells: from human plasma
As to the kind of experiment: Homogeneous plate-based screening assay of TBMB-cyclised phage clones (signal:background). It is filed as binding. On the procedure: Assay of binding of individual clones: Library transformant colonies were picked at random and grown as individual cultures in 2TY broth containing selective antibiotic. The picked colonies were DNA-sequenced using a QIAgen PyroMark Q96 DNA sequencer to reveal the amino-acid substitution present in each clone. Where isolated, a clone of each unique substitution was assayed for human plasma kallikrein binding as follows. The phage-containing supernatant was harvested from the culture and phage were cyclised with tris bromomethyl benzene (TBMB) based on the methods of Heinis et al (Nature Chemical Biology vol. 5 pp 502-507 (2009)). The purified phage from this process were assayed for binding to biotinylated human plasma kallikrein using a homogeneous plate-based binding assay; assay read-out measured on a BMG Labtech Pherastar FS plate reader. The quantitative binding data from triplicate assay samples was averaged (mean) and expressed as signal:background (where background was a sample assayed with no target material). The signal:background was expressed as a % of the parallel parent sample. Error bars denote standard deviation of the mean. Assays shown are representative of at least 2 independent experiments. The assay data was correlated with the peptide sequences. Substitutions marked in grey were not tested (a clone was not isolated from the random library sampling). A sample of a non-binding (arbitrary) bicycle was assayed in parallel to illustrate the assay baseline.
Assay of binding of individual clones: Library transformant colonies, or selection output colonies, were picked and grown as individual cultures in 2TY broth containing selective antibiotic. The picked colonies were DNA-sequenced using a QIAgen PyroMark Q96 DNA sequencer to reveal the amino-acid substitution present in each clone, and were assayed for human plasma kallikrein binding as follows. The phage-containing supernatant was harvested from the culture and phage were cyclised with tris-bromomethylbenzene (TBMB) based on the methods of Heinis et al (Nature Chemical Biology vol. 5 pp 502-507 (2009)). The purified phage from this process were assayed for binding to biotinylated human plasma kallikrein using a homogeneous plate-based binding assay; assay read-out measured on a BMG Labtech Pherastar FS plate reader. The quantitative binding data from duplicate assay samples was averaged (mean) and expressed as signal:background. Assay data shown is representative of at least 2 independent experiments. The assay data was correlated with the peptide sequences.

[5] abbreviates: Table 1, synthetic peptides, read-out: Rat (Ki).
The mark [6] stands for this setting: Table 1, synthetic peptides, read-out: Human (Ki).
[7] abbreviates: Table 3, 06-254 affinity-matured library.
Where [8] appears, read: Table 4, 06-259 affinity-matured library.

Read-outs that look alike come from different tables or passages of the source. *1 amine or outer side, *2 acyl side, *3 side chain or, on linkers, in order; H or OH if unused. Where a SMILES comes first, the peptide text is derived from it. Bridges are numbered along the chain shown (N, C = ends). TBMB = c1c(C[*:1])cc(C[*:3])cc1C[*:2]

T1 sequence (P14272 391-638 limits assumed): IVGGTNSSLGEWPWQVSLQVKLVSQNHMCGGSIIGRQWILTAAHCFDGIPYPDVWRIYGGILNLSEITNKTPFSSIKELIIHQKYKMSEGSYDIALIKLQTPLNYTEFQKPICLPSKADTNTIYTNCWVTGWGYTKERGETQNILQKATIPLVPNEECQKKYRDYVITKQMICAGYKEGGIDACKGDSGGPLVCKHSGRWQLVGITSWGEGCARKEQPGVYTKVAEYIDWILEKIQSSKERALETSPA
rabbit kallikrein, sequence (G1T127 20-629): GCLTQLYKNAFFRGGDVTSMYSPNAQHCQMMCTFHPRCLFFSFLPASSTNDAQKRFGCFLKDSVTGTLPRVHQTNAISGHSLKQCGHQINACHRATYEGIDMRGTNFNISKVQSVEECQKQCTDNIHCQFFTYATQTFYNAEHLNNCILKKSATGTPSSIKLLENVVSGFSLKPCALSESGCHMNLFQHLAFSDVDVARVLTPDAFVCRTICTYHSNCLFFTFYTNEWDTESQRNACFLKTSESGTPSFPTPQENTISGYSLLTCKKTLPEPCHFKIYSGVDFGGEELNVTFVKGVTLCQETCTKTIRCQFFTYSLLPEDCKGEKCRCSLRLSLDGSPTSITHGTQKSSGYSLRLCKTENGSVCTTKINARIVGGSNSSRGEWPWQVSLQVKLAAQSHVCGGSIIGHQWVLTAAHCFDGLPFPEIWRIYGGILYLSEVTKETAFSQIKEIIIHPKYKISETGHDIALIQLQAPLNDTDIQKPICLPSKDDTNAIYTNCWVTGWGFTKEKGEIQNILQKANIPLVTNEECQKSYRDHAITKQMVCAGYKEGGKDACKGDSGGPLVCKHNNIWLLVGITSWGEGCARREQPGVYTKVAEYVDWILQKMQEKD
T3 sequence (P03952 391-638 limits assumed): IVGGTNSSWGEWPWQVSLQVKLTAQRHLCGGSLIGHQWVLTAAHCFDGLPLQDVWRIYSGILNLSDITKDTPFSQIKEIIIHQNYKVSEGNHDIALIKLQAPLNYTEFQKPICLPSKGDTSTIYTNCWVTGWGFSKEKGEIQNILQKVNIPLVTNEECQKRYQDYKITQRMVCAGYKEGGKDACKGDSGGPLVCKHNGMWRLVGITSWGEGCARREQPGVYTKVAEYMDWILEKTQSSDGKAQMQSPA
T3 sequence (P03952 20-390 partner limits assumed): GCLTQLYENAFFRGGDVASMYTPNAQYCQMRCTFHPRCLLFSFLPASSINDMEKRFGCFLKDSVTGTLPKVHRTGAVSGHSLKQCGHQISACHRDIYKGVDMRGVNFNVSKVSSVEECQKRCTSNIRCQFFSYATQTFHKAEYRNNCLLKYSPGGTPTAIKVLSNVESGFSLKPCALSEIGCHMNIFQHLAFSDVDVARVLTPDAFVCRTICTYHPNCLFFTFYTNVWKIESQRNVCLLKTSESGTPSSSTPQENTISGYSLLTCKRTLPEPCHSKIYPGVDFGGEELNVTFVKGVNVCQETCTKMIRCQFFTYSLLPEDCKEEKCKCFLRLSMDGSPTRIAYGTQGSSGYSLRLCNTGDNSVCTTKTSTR
T2 sequence (P03952 391-638 limits assumed): as the sequence (P03952 391-638 limits assumed) above
T2 sequence (P03952 20-390 partner limits assumed): as the sequence (P03952 20-390 partner limits assumed) above

The Ki is the equilibrium dissociation constant of an inhibitor or competing ligand from its target. As to `CC(C)C[C@@H]1NC(=O)[C@H](CC(N)=O)NC(=O)[C@H](CCC(=O)O)NC(=O)[C@H](Cc2c[nH]cn2)NC(=O)[C@H](CC(C)C)NC(=O)[C@@H]2CSCc3cc(cc(c3)CSC[C@H](NC(=O)[C@H](C)N)C(=O)N3CCC[C@H]3C(=O)N[C@@H](Cc3ccc(O)cc3)C(=O)N3CCC[C@H]3C(=O)N[C@@H](Cc3ccccc3)C(=O)N[C@@H](CCCNC(=N)N)C(=O)N2)CSC[C@@H](C(=O)N[C@@H](C)C(N)=O)NC1=O` [06-258] (H-ACPYPFRCLHENLCA-NH2; linker 2-8-14 via TBMB; N-terminus and C-terminus assumed), the Ki was determined as 5.2 nM in test [1] (setting [5]); 331 nM in test [2] (Table 1, synthetic peptides); 331 nM in test [2] (Table 5); 4.3 nM in test [3] (setting [6]).
For `CSCC[C@@H]1NC(=O)[C@H](C(C)C)NC(=O)[C@H](CC(C)C)NC(=O)[C@H](CC(=O)O)NC(=O)[C@@H]2CSCc3cc(cc(c3)CSC[C@@H](C(=O)N[C@@H](C)C(N)=O)NC(=O)[C@H]([C@@H](C)O)NC(=O)[C@H](CC(=O)O)NC1=O)CSC[C@H](NC(=O)[C@H](C)N)C(=O)N[C@@H](CCCCN)C(=O)N[C@@H](CC(N)=O)C(=O)N[C@@H](Cc1ccc(O)cc1)C(=O)N[C@@H](Cc1c[nH]c3ccccc13)C(=O)N[C@@H](CC(N)=O)C(=O)N1CCC[C@H]1C(=O)N2` [06-254-03] (H-ACKNYWNPCDLVMDTCA-NH2; linker 2-9-16 via TBMB; N-terminus and C-terminus assumed), the Ki in test [3] (Table 5, read-out: Human (Ki)) is 1.4 nM. In addition, the “S:B (Signal:Background)” value in test [4] (setting [7]) was 56.70.
`CSCC[C@@H]1NC(=O)[C@H](CCCNC(=N)N)NC(=O)[C@H](CCCNC(=N)N)NC(=O)[C@H](Cc2ccc(O)cc2)NC(=O)[C@@H]2CSCc3cc(cc(c3)CSC[C@H](NC(=O)[C@H](C)N)C(=O)N3CCC[C@H]3C(=O)N[C@@H](CC(C)C)C(=O)N[C@@H](CO)C(=O)N[C@@H](CC(=O)O)C(=O)N[C@@H]([C@@H](C)O)C(=O)N[C@@H](CC(C)C)C(=O)N2)CSC[C@@H](C(=O)N[C@@H](C)C(N)=O)NC(=O)[C@@H]2CCCN2C(=O)[C@@H]2CCCN2C1=O` [06-257] (H-ACPLSDTLCYRRMPPCA-NH2; linker 2-9-16 via TBMB; N-terminus assumed): the results for the Ki in test [1] (setting [5]) and in test [3] (setting [6]) were 159 nM and 36.1 nM, respectively.
Regarding `CC(C)C[C@@H]1NC(=O)[C@H](C)NC(=O)[C@H](CCC(=O)O)NC(=O)[C@H](CC(=O)O)NC(=O)[C@H](C)NC(=O)[C@@H]2CCCN2C(=O)[C@@H]2CSCc3cc(cc(c3)CSC[C@@H](C(=O)NCC(N)=O)NC1=O)CSC[C@H](NC(=O)[C@H](C)N)C(=O)N[C@@H](CO)C(=O)N[C@@H](CC(=O)O)C(=O)N[C@@H](CCCNC(=N)N)C(=O)N[C@@H](Cc1ccccc1)C(=O)N[C@@H](CCCNC(=N)N)C(=O)N[C@@H](CC(N)=O)C(=O)N2` [PK15, reference compound] (H-ACSDRFRNCPADEALCG-NH2; linker 2-9-16 via TBMB (inferred); N-terminus and C-terminus assumed), the Ki in test [1] (text b212, read-out: Ki to rat kallikrein) is about 500 nM; in test [3] (text b212, read-out: Ki to human kallikrein) it was about 1.2 nM. In addition, the “S:B (Signal:Background)” value in test [4] (setting [7]) and in test [4] (setting [8]) was 14.05 each time.
Consider `CC[C@H](C)[C@@H]1NC(=O)[C@H](CC(C)C)NC(=O)[C@H](CC(=O)O)NC(=O)[C@@H]2CSCc3cc(cc(c3)CSC[C@@H](C(=O)N[C@@H](C)C(N)=O)NC(=O)[C@@H]3CCCN3C(=O)CNC(=O)[C@@H]3CCCN3C1=O)CSC[C@H](NC(=O)[C@H](C)N)C(=O)N[C@@H](CCCCN)C(=O)N[C@@H](CC(N)=O)C(=O)N[C@@H](Cc1ccc(O)cc1)C(=O)N[C@@H](Cc1c[nH]c3ccccc13)C(=O)N[C@@H](CC(N)=O)C(=O)N1CCC[C@H]1C(=O)N2` [06-254-02] (H-ACKNYWNPCDLIPGPCA-NH2; linker 2-9-16 via TBMB; N-terminus assumed), for which the Ki in test [3] (Table 5, read-out: Human (Ki)) was 0.5 nM. Moreover, the “S:B (Signal:Background)” value in test [4] (setting [7]) is given as 46.65.
`CC(C)[C@@H]1NC(=O)[C@H](CO)NC(=O)[C@@H]2CSCc3cc(cc(c3)CSC[C@@H](C(=O)N[C@@H](C)C(N)=O)NC(=O)[C@H](C(C)C)NC(=O)[C@@H]3CCCN3C(=O)[C@@H]3CCCN3C(=O)[C@H](CCC(=O)O)NC1=O)CSC[C@H](NC(=O)[C@H](C)N)C(=O)N[C@@H](CC(N)=O)C(=O)N[C@@H](Cc1c[nH]cn1)C(=O)N[C@@H](Cc1c[nH]c3ccccc13)C(=O)N[C@@H](CC(N)=O)C(=O)N1CCC[C@H]1C(=O)N[C@@H](Cc1c[nH]c3ccccc13)C(=O)N2` [06-259-01] (H-ACNHWNPWCSVEPPVCA-NH2; linker 2-9-16 via TBMB; N-terminus assumed): in test [4] (setting [8]), the “S:B (Signal:Background)” value worked out at 51.67.
For `CC(C)[C@@H]1NC(=O)[C@H](CCCNC(=N)N)NC(=O)[C@@H]2CSCc3cc(cc(c3)CSC[C@@H](C(=O)N[C@@H](C)C(N)=O)NC(=O)[C@H](Cc3ccc(O)cc3)NC(=O)[C@H](CCCNC(=N)N)NC(=O)[C@H]([C@@H](C)O)NC(=O)[C@H](CC(=O)O)NC1=O)CSC[C@H](NC(=O)[C@H](C)N)C(=O)N[C@@H](CCC(N)=O)C(=O)N[C@@H](CCCCN)C(=O)N[C@@H](Cc1ccccc1)C(=O)N[C@@H](CCC(=O)O)C(=O)N[C@@H](CO)C(=O)N[C@@H](CCCNC(=N)N)C(=O)N2` [06-256] (H-ACQKFESRCRVDTRYCA-NH2; linker 2-9-16 via TBMB; N-terminus assumed), the Ki in test [1] (setting [5]) stood at 2780 nM; in test [2] (Table 1, synthetic peptides), 1460 nM; in test [2] (Table 5) it was 1460 nM; in test [3] (setting [6]), 6.6 nM.
On to `CC[C@H](C)[C@@H]1NC(=O)[C@H](CC(=O)O)NC(=O)[C@@H]2CCCN2C(=O)[C@H](Cc2ccc(O)cc2)NC(=O)[C@H](Cc2ccc(O)cc2)NC(=O)[C@H](C(C)C)NC(=O)[C@@H]2CSCc3cc(cc(c3)CSC[C@@H](C(=O)N[C@@H](C)C(N)=O)NC1=O)CSC[C@H](NC(=O)[C@H](C)N)C(=O)N[C@@H](CC(N)=O)C(=O)N[C@@H](CC(N)=O)C(=O)N[C@@H](Cc1ccccc1)C(=O)N1CCC[C@H]1C(=O)N[C@@H](Cc1ccccc1)C(=O)N[C@@H](CCCNC(=N)N)C(=O)N2` [06-261] (H-ACNNFPFRCVYYPDICA-NH2; linker 2-9-16 via TBMB; N-terminus assumed), for which the inhibition constant Ki in test [1] (setting [5]) was found to be 4 nM; in test [2] (Table 1, synthetic peptides), 1040 nM; in test [2] (Table 5), 1040 nM; in test [3] (setting [6]) it was 0.4 nM.
In the case of `CC[C@H](C)[C@@H]1NC(=O)[C@H](CC(C)C)NC(=O)[C@H](CC(=O)O)NC(=O)[C@@H]2CSCc3cc(cc(c3)CSC[C@@H](C(=O)N[C@@H](C)C(N)=O)NC(=O)[C@H]([C@@H](C)O)NC(=O)[C@H]([C@@H](C)O)NC(=O)[C@H](CCC(=O)O)NC1=O)CSC[C@H](NC(=O)[C@H](C)N)C(=O)N[C@@H](CCCCN)C(=O)N[C@@H](CC(N)=O)C(=O)N[C@@H](Cc1ccc(O)cc1)C(=O)N[C@@H](Cc1c[nH]c3ccccc13)C(=O)N[C@@H](CC(N)=O)C(=O)N1CCC[C@H]1C(=O)N2` [06-254-01] (H-ACKNYWNPCDLIETTCA-NH2; linker 2-9-16 via TBMB; N-terminus and C-terminus assumed), the “S:B (Signal:Background)” value in test [4] (setting [7]) turned out to be 61.90.

For the origin of these results see patent US10894808B2, “Polypeptide ligands specific for plasma kallikrein” (BicycleRD Limited, priority 2013, dated 2021).
